Source: publication PMC3501516, “Anti-Diabetic Efficacy and Impact on Amino Acid Metabolism of GRA1, a Novel Small-Molecule Glucagon Receptor Antagonist” (PLoS ONE, 2012)

Legend:
rhesus monkey = test: Blunting of glucagon-induced blood glucose excursion in rhesus monkey; assay type: in vivo; conditions: 1 mg/kg 4 h before 15 µg/kg glucagon i.m.
Description: (§1) In mouse studies of glucagon-induced excursions in blood glucose, animals were dosed orally with vehicle (10 mL/kg 0.5% aqueous methylcellulose) or GRA1 one hour prior to challenge by intraperitoneal injection of 15 µg/kg glucagon (Eli Lilly, Indianapolis, IN) or vehicle, [20]. In the studies in monkey, GRA1 or vehicle was administered to chair-restrained animals via a nasogastric tube 4 h prior to intramuscular injection of 15 µg/kg glucagon. Blood glucose measurements were made using a OneTouch glucometer (Lifescan, Milpitas, CA).
(§2) Figure 3 Blunting of glucagon-induced blood glucose excursions by GRA1 treatment in the (A) hGCGR mouse and (B) rhesus monkey. In (A), mice (n = 8) were administered vehicle or 3, 10 or 30 mg/kg GRA1, then challenged 1 h later (time 0) by intraperitoneal injection of 15 µg/kg glucagon or vehicle. Pharmacokinetic analysis determined that these animals had mean plasma GRA1 concentrations of 0.4, 0.9, and 4.7 µM, respectively, at 1 h postdose. In (B), monkeys (n = 4) were administered 1 mg/kg GRA1 4 h prior to intramuscular injection of 15 µg/kg glucagon or vehicle. At 1 h postdose, the mean plasma GRA1 concentration in these animals was 0.2 µM. *p<0.05; **p<0.01; and ***p<0.001 vs. glucagon-treated control animals.

hGCGR mouse = test: Blunting of glucagon-induced blood glucose excursion in hGCGR mouse; assay type: in vivo; conditions: vehicle 1393±179
Description: as §1, §2

GLP-1R (GLP-1 receptor) = target: T1, GLP-1R (GLP-1 receptor) (Homo sapiens, UniProt P43220); test: Inhibition of GLP-1-stimulated cAMP production in CHO cells expressing GLP-1R; assay type: cell-based; conditions: human GLP-1R
T1 construct: expressed in transfected cells
T1 sequence (P43220 24-463): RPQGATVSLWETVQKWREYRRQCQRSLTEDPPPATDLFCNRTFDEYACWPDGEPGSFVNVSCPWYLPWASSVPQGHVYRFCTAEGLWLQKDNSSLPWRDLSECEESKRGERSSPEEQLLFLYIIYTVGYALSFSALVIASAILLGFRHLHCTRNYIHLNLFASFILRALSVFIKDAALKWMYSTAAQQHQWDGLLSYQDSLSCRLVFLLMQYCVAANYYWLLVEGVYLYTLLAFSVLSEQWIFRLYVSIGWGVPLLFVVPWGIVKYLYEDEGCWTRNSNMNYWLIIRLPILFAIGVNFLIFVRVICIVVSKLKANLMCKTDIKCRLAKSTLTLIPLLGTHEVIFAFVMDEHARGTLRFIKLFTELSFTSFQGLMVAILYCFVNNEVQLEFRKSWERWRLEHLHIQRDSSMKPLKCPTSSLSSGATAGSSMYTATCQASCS
Description: Transfected Chinese hamster ovary (CHO) cell lines were acquired and maintained as previously described, [20]. These included separate cell lines stably expressing human GCGR (hGCGR), mouse GCGR, rhesus GGCR, glucose-dependent insulinotropic peptide receptor (GIPR), GLP-1 receptor (GLP-1R), pituitary adenylate cyclase-activating polypeptide receptor type 1 (PAC1R), and vasoactive adenylate cyclase-activating polypeptide receptor type 2 (VPAC2R). Inhibition of glucagon binding to hGCGR was assayed in cell membranes prepared from the line of CHO cells that expressed the hGCGR. Functional antagonism was assayed by measuring the production of cAMP in intact CHO cells stimulated by agonists specific for their cognate receptors (i.e., glucagon for GCGR-expressing cell lines, GIP for the GIPR-expressing line, etc.). Primary human hepatocytes were obtained from In Vitro Technologies (Baltimore, MD) and glucagon-stimulated glycogenolysis was studied in these as previously described.

mouse GCGR = target: T2, mouse GCGR (Mus musculus, UniProt Q61606); test: Inhibition of glucagon-stimulated cAMP production in CHO cells expressing mouse GCGR; assay type: cell-based
T2 construct: expressed in transfected cells
T2 sequence (Q61606 27-485): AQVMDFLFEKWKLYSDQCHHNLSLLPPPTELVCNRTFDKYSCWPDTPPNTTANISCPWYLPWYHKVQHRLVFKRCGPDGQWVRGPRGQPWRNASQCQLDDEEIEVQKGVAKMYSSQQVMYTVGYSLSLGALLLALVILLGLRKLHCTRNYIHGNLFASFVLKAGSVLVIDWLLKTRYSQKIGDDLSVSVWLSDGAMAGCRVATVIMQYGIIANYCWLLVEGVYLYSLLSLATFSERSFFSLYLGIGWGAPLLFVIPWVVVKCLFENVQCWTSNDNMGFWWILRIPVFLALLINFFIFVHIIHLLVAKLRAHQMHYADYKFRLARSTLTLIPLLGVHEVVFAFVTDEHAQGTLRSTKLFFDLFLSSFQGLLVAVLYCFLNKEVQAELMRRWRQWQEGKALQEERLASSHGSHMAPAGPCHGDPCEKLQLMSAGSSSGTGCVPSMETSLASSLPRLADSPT
Description: Transfected Chinese hamster ovary (CHO) cell lines were acquired and maintained as previously described [17], [20]. These included separate cell lines stably expressing human GCGR (hGCGR), mouse GCGR, rhesus GGCR, glucose-dependent insulinotropic peptide receptor (GIPR), GLP-1 receptor (GLP-1R), pituitary adenylate cyclase-activating polypeptide receptor type 1 (PAC1R), and vasoactive adenylate cyclase-activating polypeptide receptor type 2 (VPAC2R). […] Functional antagonism was assayed by measuring the production of cAMP in intact CHO cells stimulated by agonists specific for their cognate receptors (i.e., glucagon for GCGR-expressing cell lines, GIP for the GIPR-expressing line, etc.).

rhesus monkeys = test: Fasted plasma glucagon, glucose and amino acids in rhesus monkeys dosed 14 days; assay type: in vivo, rhesus monkey
Description: In a follow-up experiment, adult rhesus monkeys were dosed once daily for 14 days with 30 mg/kg GRA1 or vehicle (0.5% methylcellulose plus 0.02% sodium dodecyl sulfate in 2 mL/kg water) delivered by oral gavage. Blood samples were collected on days 0, 1, 7, and 14 after the animals had fasted overnight. Plasma concentrations of glucose, glucagon, and amino acids were assayed by the Hormone Assay & Analytical Services Core at Vanderbilt University (Nashville, TN).

[1] = rhesus, 30 mg/kg once daily, Day 0
[2] = rhesus, 30 mg/kg once daily, Day 1
[3] = rhesus, 30 mg/kg once daily, Day 7
[4] = rhesus, 30 mg/kg once daily, Day 14

Compound: COc1ccc2cc(-c3cc(-c4cc(C(F)(F)F)ccc4F)nn3[C@@H](C)c3ccc(C(=O)NCCC(=O)O)cc3)ccc2c1 [GRA1, N-[4-((1S)-1-{3-(2-fluoro-5-trifluoromethylphenyl)-5-[6-methoxynaphth-2-yl]-1H-pyrazol-1-yl}ethyl)benzoyl]-β-alanine]
- Reduction of magnitude of glucagon-stimulated blood glucose excursion (rhesus monkey): about 50%
- Baseline-subtracted mean AUC0–50 of glucagon-stimulated blood glucose excursion (hGCGR mouse; 3 mg/kg p.o. 1 h before 15 µg/kg glucagion i.p.): 812 ± 122 mg·min/dL
- Baseline-subtracted mean AUC0–50 of glucagon-stimulated blood glucose excursion (hGCGR mouse; 10 mg/kg p.o. 1 h before 15 µg/kg glucagon i.p.): 543 ± 68 mg·min/dL
- Baseline-subtracted mean AUC0–50 of glucagon-stimulated blood glucose excursion (hGCGR mouse; 30 mg/kg p.o. 1 h before 15 µg/kg glucagon i.p.): 476 ± 64 mg·min/dL
- IC50 (GLP-1R (GLP-1 receptor)): 7.9 µM
- IC50 (mouse GCGR): 178 nM
- Hypoglycemia (rhesus monkeys; normoglycemic rhesus, 30 mg/kg once daily, 14 days): not rendered hypoglycemic
- Plasma insulin (rhesus monkeys; rhesus, 30 mg/kg once daily (data not shown)): unaffected
- Alanine, fasted plasma (rhesus monkeys; [1]): 200 ± 21 µM
- Arginine, fasted plasma (rhesus monkeys; [1]): 124 ± 15 µM
- Asparagine, fasted plasma (rhesus monkeys; [1]): 61.2 ± 17.8 µM
- Aspartic acid, fasted plasma (rhesus monkeys; [1]): 5.3 ± 1.3 µM
- Glucagon, fasted plasma (rhesus monkeys; [1]): 381 ± 74 pg/mL
- Glucose, fasted plasma (rhesus monkeys; [1]): 85.3 ± 9.4 mg/dL
- Glutamic acid, fasted plasma (rhesus monkeys; [1]): 48.1 ± 3.6 µM
- Glutamine, fasted plasma (rhesus monkeys; [1]): 597 ± 66 µM
- Glycine, fasted plasma (rhesus monkeys; [1]): 300 ± 32 µM
- Histidine, fasted plasma (rhesus monkeys; [1]): 121 ± 11 µM
- Hydroxyproline, fasted plasma (rhesus monkeys; [1]): 12.9 ± 2.3 µM
- Isoleucine, fasted plasma (rhesus monkeys; [1]): 98.2 ± 8.3 µM
- Leucine, fasted plasma (rhesus monkeys; [1]): 147 ± 9 µM
- Lysine, fasted plasma (rhesus monkeys; [1]): 191 ± 25 µM
- Methionine, fasted plasma (rhesus monkeys; [1]): 22.9 ± 2.7 µM
- Phenylalanine, fasted plasma (rhesus monkeys; [1]): 47.8 ± 2.4 µM
- Proline, fasted plasma (rhesus monkeys; [1]): 118 ± 13 µM
- Serine, fasted plasma (rhesus monkeys; [1]): 123 ± 8 µM
- Threonine, fasted plasma (rhesus monkeys; [1]): 95.2 ± 5.9 µM
- Tyrosine, fasted plasma (rhesus monkeys; [1]): 77.2 ± 6.8 µM
- Valine, fasted plasma (rhesus monkeys; [1]): 256 ± 21 µM
- Alanine, fasted plasma (rhesus monkeys; [2]): 500 ± 79 µM
- Arginine, fasted plasma (rhesus monkeys; [2]): 237 ± 33 µM
- Asparagine, fasted plasma (rhesus monkeys; [2]): 42.5 ± 8.3 µM
- Aspartic acid, fasted plasma (rhesus monkeys; [2]): 5.6 ± 0.7 µM
- Glucagon, fasted plasma (rhesus monkeys; [2]): 921 ± 16 pg/mL
- Glucose, fasted plasma (rhesus monkeys; [2]): 63.7 ± 2.7 mg/dL
- Glutamic acid, fasted plasma (rhesus monkeys; [2]): 71.9 ± 5.7 µM
- Glutamine, fasted plasma (rhesus monkeys; [2]): 986 ± 150 µM
- Glycine, fasted plasma (rhesus monkeys; [2]): 533 ± 70 µM
- Histidine, fasted plasma (rhesus monkeys; [2]): 153 ± 14 µM
- Hydroxyproline, fasted plasma (rhesus monkeys; [2]): 15.4 ± 2.3 µM
- Isoleucine, fasted plasma (rhesus monkeys; [2]): 72.4 ± 7.9 µM
- Leucine, fasted plasma (rhesus monkeys; [2]): 164 ± 24 µM
- Lysine, fasted plasma (rhesus monkeys; [2]): 390 ± 56 µM
- Methionine, fasted plasma (rhesus monkeys; [2]): 50.2 ± 10.0 µM
- Phenylalanine, fasted plasma (rhesus monkeys; [2]): 52.6 ± 7.0 µM
- Proline, fasted plasma (rhesus monkeys; [2]): 326 ± 54 µM
- Serine, fasted plasma (rhesus monkeys; [2]): 228 ± 24 µM
- Threonine, fasted plasma (rhesus monkeys; [2]): 179.1 ± 25.1 µM
- Tyrosine, fasted plasma (rhesus monkeys; [2]): 161.4 ± 26.8 µM
- Valine, fasted plasma (rhesus monkeys; [2]): 252 ± 33 µM
- Alanine, fasted plasma (rhesus monkeys; [3]): 456 ± 68 µM
- Arginine, fasted plasma (rhesus monkeys; [3]): 341 ± 76 µM
- Asparagine, fasted plasma (rhesus monkeys; [3]): 54.2 ± 10.8 µM
- Aspartic acid, fasted plasma (rhesus monkeys; [3]): 6.7 ± 1.2 µM
- Glucagon, fasted plasma (rhesus monkeys; [3]): 874 ± 101 pg/mL
- Glucose, fasted plasma (rhesus monkeys; [3]): 69.2 ± 4.9 mg/dL
- Glutamic acid, fasted plasma (rhesus monkeys; [3]): 98.9 ± 15.2 µM
- Glutamine, fasted plasma (rhesus monkeys; [3]): 1186 ± 164 µM
- Glycine, fasted plasma (rhesus monkeys; [3]): 558 ± 74 µM
- Histidine, fasted plasma (rhesus monkeys; [3]): 170 ± 15 µM
- Hydroxyproline, fasted plasma (rhesus monkeys; [3]): 23.3 ± 5.3 µM
- Isoleucine, fasted plasma (rhesus monkeys; [3]): 88.6 ± 8.2 µM
- Leucine, fasted plasma (rhesus monkeys; [3]): 215 ± 44 µM
- Lysine, fasted plasma (rhesus monkeys; [3]): 340 ± 71 µM
- Methionine, fasted plasma (rhesus monkeys; [3]): 36.1 ± 5.6 µM
- Phenylalanine, fasted plasma (rhesus monkeys; [3]): 49.7 ± 3.3 µM
- Proline, fasted plasma (rhesus monkeys; [3]): 490 ± 95 µM
- Serine, fasted plasma (rhesus monkeys; [3]): 256 ± 41 µM
- Threonine, fasted plasma (rhesus monkeys; [3]): 160.9 ± 21.3 µM
- Tyrosine, fasted plasma (rhesus monkeys; [3]): 110.6 ± 7.9 µM
- Valine, fasted plasma (rhesus monkeys; [3]): 260 ± 17 µM
- Alanine, fasted plasma (rhesus monkeys; [4]): 361 ± 51 µM
- Arginine, fasted plasma (rhesus monkeys; [4]): 282 ± 54 µM
- Asparagine, fasted plasma (rhesus monkeys; [4]): 33.8 ± 4.8 µM
- Aspartic acid, fasted plasma (rhesus monkeys; [4]): 5.9 ± 0.8 µM
- Glucagon, fasted plasma (rhesus monkeys; [4]): 984 ± 186 pg/mL
- Glucose, fasted plasma (rhesus monkeys; [4]): 69.2 ± 3.8 mg/dL
- Glutamic acid, fasted plasma (rhesus monkeys; [4]): 91.9 ± 10.0 µM
- Glutamine, fasted plasma (rhesus monkeys; [4]): 1151 ± 191 µM
- Glycine, fasted plasma (rhesus monkeys; [4]): 531 ± 76 µM
- Histidine, fasted plasma (rhesus monkeys; [4]): 187 ± 21 µM
- Hydroxyproline, fasted plasma (rhesus monkeys; [4]): 15.3 ± 2.3 µM
- Isoleucine, fasted plasma (rhesus monkeys; [4]): 89.6 ± 7.8 µM
- Leucine, fasted plasma (rhesus monkeys; [4]): 218 ± 36 µM
- Lysine, fasted plasma (rhesus monkeys; [4]): 375 ± 70 µM
- Methionine, fasted plasma (rhesus monkeys; [4]): 34.7 ± 6.3 µM
- Phenylalanine, fasted plasma (rhesus monkeys; [4]): 51.5 ± 1.8 µM
- Proline, fasted plasma (rhesus monkeys; [4]): 415 ± 84 µM
- Serine, fasted plasma (rhesus monkeys; [4]): 217 ± 28 µM
- Threonine, fasted plasma (rhesus monkeys; [4]): 155.3 ± 23.3 µM
- Tyrosine, fasted plasma (rhesus monkeys; [4]): 105.8 ± 9.9 µM
- Valine, fasted plasma (rhesus monkeys; [4]): 276 ± 20 µM
- Increase of plasma glucagon relative to vehicle-treated controls (rhesus monkeys; rhesus, 30 mg/kg once daily, both Day 1 and Day 7): approximately 3 fold
